Data from BindingDB's records for patent US12503484 (Seismic Pharmaceuticals, 2025).

Biological target: Sodium/potassium-transporting ATPase subunit alpha-1 (Canis lupus familiaris, UniProt P50997)
Test: Inhibition of Dog Renal Na+/K+ ATPase Activity
Method: Increasing concentrations of the standard ouabain, or tested compound, were incubated with 0.3 μg of purified dog kidney enzyme for 10 min at 37° C. in 120 μl final volume of a medium containing 140 mM NaCl, 3 mM MgCl2, 50 mM Hepes-Tris, 3 mM ATP, pH 7.5. Then, 10 μl of a solution containing 10 mM KCl and 20 nCi of 32P-ATP (3-10 Ci/mmol, Perkin Elmer) were added. The reaction was allowed to continue for 15 min at 37° C. and then stopped by acidification with 20% v/v ice-cold perchloric acid. 32P was separated by centrifugation with activated Charcoal (Norit A, Serva) and the radioactivity was counted. The inhibitory activity was expressed as percent of the control samples carried out in the absence of ouabain, or tested compound.

Q: How did the IC50 turn out when CCCC(=O)OCCC1CC[C@@]2(C)C(C1)[C@@H](O)C[C@@H]1[C@@H]2CC[C@]2(C)C(=O)CC[C@@H]12 (some centres not stated) [US12503484, Compound CVie217] was run?
A: Its IC50 is > 100 µM.

Q: CCCCC(C(=O)O)C1CC[C@@]2(C)C(C1)[C@H](O)C[C@@H]1[C@@H]2CC[C@]2(C)C(=O)CC[C@@H]12 (some centres not stated) [US12503484, Compound CVie219] was tested. Which IC50 did it give?
A: Its IC50 is > 100 µM.
